Measurements as given in US4410514A, “GnRH Agonists” (The Salk Institute for Biological Studies, priority 1982, dated 1983).
Where a SMILES comes first, the peptide text is derived from it. [ ]: non-standard residue; d: D form. pGlu = O=C1CC[C@@H](C(=O)O)N1

System: release of LH by the anterior pituitary in fish
Experiment: in vivo salmon assay, radioimmunoassay for LH level in blood
Settings: salmon of about 2 kg, about 10 μg injected per fish, blood taken about 2 hours after injection, same amount of mammalian GnRH as comparator
Experimental: The peptide is assayed in vivo using salmon having an average weight of about 2 kg, and each fish is injected with about 10 μg. Additional fish are injected with the same amount of mammalian GnRH. Both sets are then compared with controls. About 2 hours following injection, the salmon are sacrificed, and the blood withdrawn for specific radioimmunoassay for LH level.

For `CCNC(=O)[C@@H]1CCCN1C(=O)[C@H](CC(C)C)NC(=O)[C@H](Cc1c[nH]c2ccccc12)NC(=O)[C@@H](C)NC(=O)[C@H](Cc1ccc(O)cc1)NC(=O)[C@H](CO)NC(=O)[C@H](Cc1c[nH]c2ccccc12)NC(=O)[C@H](Cc1c[nH]cn1)NC(=O)[C@@H]1CCC(=O)N1` [Peptide 1, pGlu--His--Trp--Ser--Tyr--D--Ala--Trp--Leu--Pro--NHCH2 CH3] ([pGlu]HWSY[dA]WLP-NHEt), the “potency in causing the release of LH by the anterior pituitary, compared with mammalian GnRH” value was “substantially more potent than mammalian GnRH”.
